Results on one molecule are retold here after US8927459B2, “Vegetation treatment” (Arctic, Inc., priority 2008, dated 2015).

Each structure is given as a SMILES string.

In assay [1] the test system is large crabgrass. The assay can be described thus: greenhouse-grown crabgrass treated with non-insulated CO2 prototype, visual percent control. Type of assay: in vivo. To be noted: for % control: 2 lbs CO2; for percent control: 2-3 tiller greenhouse-grown, seven days after treatment (FIG. 2). On the procedure: (§1) Greenhouse-grown crabgrass plants were treated with the prototype containing either an 8002 flat fan nozzle (which was measured to release 2 pounds of CO2 per minute) or with an 8004 flat fan nozzle (which releases 4 pounds of CO2 per minute), to determine if the rate of application affects the percent control achieved. Control means killing or death of the plants as determined by visual observation. The percent control is a visual rating of the treated plant compared to an untreated control plant. In other words, it is the percent of plant death. Trials were conducted in triplicate.
Similarly, treatment for 15 seconds with the 2 lb/min nozzle results in 17 percent control with 0.5 pounds of CO2 dispensed, while treatment with the 4 lb/min nozzle for 5 seconds results in 12 percent control with 0.3 pounds of CO2 dispensed. From this study, it was concluded that for crabgrass, the total amount (dose) of CO2 applied correlates with % control. See FIG. 4, which graphs % control vs. CO2 dose with two different application rates.
In the data presented in FIG. 3, the crabgrass plants are larger. They are at the 3-4 tiller stage, whereas the plants in the data presented in FIG. 2 were 2-3 tiller plants. The CO2 application controlled both plant sizes well, and with the larger plants the same trend of percent control corresponding to the total pounds of CO2 applied was observed. In both cases the LD50 is over 1 pound CO2/plant.
(§2) Most commercial herbicides achieve 80% control or better. The prototype used 2 pounds of CO2 to achieve this level of control for one 6″ plant. At the 2 lb/plant dispensing rate, a commercial 25-lb cylinder of CO2 would only treat 10 plants; clearly efficiency increases were needed to create a viable backpack sprayer system. An insulating cone was attached around the nozzle with the expectation of possibly achieving a modest increase in efficiency, perhaps cutting the CO2 requirement by 20-50%.

The test system of assay [2] is crabgrass. In words: field-grown crabgrass treated with CO2 prototype with insulating cone, percent control. Type of assay: in vivo. As to conditions: for % control: insulated prototype, 0.15 lbs CO2. The method, then:
as §1, §2
Unexpectedly, a greater than ten-fold reduction in the CO2 usage was achieved (Table 1). The results are especially remarkable since field-grown plants (treated with the insulated design) are usually harder to kill than greenhouse-grown plants that were treated with the non-insulated design.

In the case of `O=C=O` [CO2, carbon dioxide], the “% control” value was 75% in assay [1] (2-3 tiller greenhouse, non-insulated prototype); 87% in assay [1] (3-4 tiller greenhouse, non-insulated prototype); 80+ % in assay [2] (2-3 tiller field); not below 80% in assay [2] (2-3 tiller field, listed as carbon dioxide); 80+ % in assay [2] (3-4 tiller field); not below 80% in assay [2] (3-4 tiller field, listed as carbon dioxide). Moreover, the LD50 entry is “over 1 pound CO2/plant” in assay [1] (2-3 tiller plants, non-insulated prototype) and “over 1 pound CO2/plant” in assay [1] (3-4 tiller plants, non-insulated prototype). Moreover, the percent control was found to be 17% in assay [1] (2 lb/min nozzle, 15 seconds, 0.5 pounds of CO2 dispensed); 40% in assay [1] (2 lb/min nozzle, 30 seconds, one pound of CO2 dispensed); 12% in assay [1] (4 lb/min nozzle, 5 seconds, 0.3 pounds of CO2 dispensed); 42% in assay [1] (4 lb/min nozzle, 15 seconds, one pound of CO2 dispensed). In addition, the “amount of CO2 used to achieve 80% control or better” value in assay [1] (non-insulated prototype, one 6″ plant) is recorded as 2 pounds. Besides, the “LD50 (lethal dose to 50% of plants)” value in assay [1] (without insulated cone) is reported as 2 pounds of CO2 per plant; in assay [2] (with insulated cone), “less than 0.2 lbs/CO2 per plant”.
